From patent publication US20210070748A1, “INHIBITORS OF BRUTONS TYROSINE KINASE” (Pharmacyclics LLC, priority 2015, published 2021)
pIC50: −log10 of the molar value. Like-named read-outs stand apart in the source and are kept apart here.

Tests used:
Assay type in all cases: biochemical
[1] = target: T1, BTK-WT (Homo sapiens, UniProt Q06187); experiment: Btk in vitro inhibitory activity (one of Method A TR-FRET, Method B electrophoretic mobility shift, Method C radiometric filter binding)
T1 construct: purified from insect cells as a full-length construct containing an N-terminal 6X-His tag; His6 (N); made in house; host or cells: insect cells (baculovirus Sf21 in Method B)

[2] = target: EGFR (Homo sapiens, UniProt P00533); experiment: Inhibition of a panel of kinases, in vitro HotSpot kinase assay: EGFR; details: for pIC50: Table 15, C compounds, 1 μM ATP; for EGFR* IC50 relative to Btk IC50 value: fold relative to Btk IC50 value
Procedure: (§1) The degree of inhibition of a panel of kinases is determined using the in vitro HotSpot kinase assay (purified enzymes, ^33P-ATP, an appropriate substrate and 1 μM ATP).

[3] = target: SRC (Homo sapiens, UniProt P12931); experiment: Inhibition of a panel of kinases, in vitro HotSpot kinase assay: SRC; details: for pIC50: Table 15, C compounds, 1 μM ATP; for SRC* IC50 relative to Btk IC50 value: fold relative to Btk IC50 value
Procedure: as §1

[4] = target: LCK (Homo sapiens, UniProt P06239); experiment: Inhibition of a panel of kinases, in vitro HotSpot kinase assay: LCK; details: for pIC50: Table 15, C compounds, 1 μM ATP, read-out: IC50 LCK; for LCK* IC50 relative to Btk IC50 value: fold relative to Btk IC50 value
[5] = target: T2, JAK3 (Homo sapiens, UniProt P52333); experiment: Inhibition of a panel of kinases, in vitro HotSpot kinase assay: JAK3; details: for pIC50: Table 15, C compounds, 1 μM ATP, read-out: IC50 JAK3; for JAK3* IC50 relative to Btk IC50 value: fold relative to Btk IC50 value
T2 sequence (P52333 1-1124): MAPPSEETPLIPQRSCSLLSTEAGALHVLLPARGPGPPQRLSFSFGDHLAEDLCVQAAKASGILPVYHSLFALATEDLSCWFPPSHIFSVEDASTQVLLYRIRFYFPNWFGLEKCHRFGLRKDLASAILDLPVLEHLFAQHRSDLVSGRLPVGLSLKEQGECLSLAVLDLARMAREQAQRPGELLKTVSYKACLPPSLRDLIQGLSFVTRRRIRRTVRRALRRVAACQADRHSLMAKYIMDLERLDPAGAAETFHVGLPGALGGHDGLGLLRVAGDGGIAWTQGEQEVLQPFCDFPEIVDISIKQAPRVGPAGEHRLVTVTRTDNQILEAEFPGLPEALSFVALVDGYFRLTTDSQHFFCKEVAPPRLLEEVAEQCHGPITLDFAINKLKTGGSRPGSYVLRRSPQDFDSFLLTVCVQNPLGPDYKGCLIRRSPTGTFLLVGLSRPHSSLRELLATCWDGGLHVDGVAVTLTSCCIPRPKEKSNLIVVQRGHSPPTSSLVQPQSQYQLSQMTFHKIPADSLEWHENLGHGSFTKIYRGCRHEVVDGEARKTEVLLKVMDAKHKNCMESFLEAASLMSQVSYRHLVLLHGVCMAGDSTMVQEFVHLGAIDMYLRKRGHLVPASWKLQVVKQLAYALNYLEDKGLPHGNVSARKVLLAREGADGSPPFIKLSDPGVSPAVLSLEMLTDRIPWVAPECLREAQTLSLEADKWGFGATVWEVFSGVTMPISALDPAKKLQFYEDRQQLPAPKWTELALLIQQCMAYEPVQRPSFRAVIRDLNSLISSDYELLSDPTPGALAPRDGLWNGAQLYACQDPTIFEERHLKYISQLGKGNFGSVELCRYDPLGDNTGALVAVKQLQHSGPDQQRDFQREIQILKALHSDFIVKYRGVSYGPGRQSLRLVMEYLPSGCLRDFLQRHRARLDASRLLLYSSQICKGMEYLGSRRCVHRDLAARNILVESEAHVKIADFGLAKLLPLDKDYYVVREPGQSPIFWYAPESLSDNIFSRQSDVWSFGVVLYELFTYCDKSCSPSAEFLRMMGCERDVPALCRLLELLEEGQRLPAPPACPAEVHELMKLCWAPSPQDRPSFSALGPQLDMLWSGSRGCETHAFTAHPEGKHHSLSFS

[6] = Table 15, C compounds, read-out: IC50 BTK-WT

Sequence of SRC (P12931 whole entry): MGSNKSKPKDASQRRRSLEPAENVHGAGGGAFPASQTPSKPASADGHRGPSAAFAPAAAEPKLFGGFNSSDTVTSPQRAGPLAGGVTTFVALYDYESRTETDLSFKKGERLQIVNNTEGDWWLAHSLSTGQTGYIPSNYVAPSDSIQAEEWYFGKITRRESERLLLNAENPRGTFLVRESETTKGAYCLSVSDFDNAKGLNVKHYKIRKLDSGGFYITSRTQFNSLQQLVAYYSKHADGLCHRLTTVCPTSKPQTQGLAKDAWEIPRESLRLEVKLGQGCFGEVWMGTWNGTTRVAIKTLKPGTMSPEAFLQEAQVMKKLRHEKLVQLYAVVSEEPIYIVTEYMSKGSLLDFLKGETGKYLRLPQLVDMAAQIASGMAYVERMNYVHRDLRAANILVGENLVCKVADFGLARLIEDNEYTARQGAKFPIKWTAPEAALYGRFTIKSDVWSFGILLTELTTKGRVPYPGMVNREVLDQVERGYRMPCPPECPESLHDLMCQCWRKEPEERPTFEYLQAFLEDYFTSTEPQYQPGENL
Sequence of LCK (P06239 whole entry): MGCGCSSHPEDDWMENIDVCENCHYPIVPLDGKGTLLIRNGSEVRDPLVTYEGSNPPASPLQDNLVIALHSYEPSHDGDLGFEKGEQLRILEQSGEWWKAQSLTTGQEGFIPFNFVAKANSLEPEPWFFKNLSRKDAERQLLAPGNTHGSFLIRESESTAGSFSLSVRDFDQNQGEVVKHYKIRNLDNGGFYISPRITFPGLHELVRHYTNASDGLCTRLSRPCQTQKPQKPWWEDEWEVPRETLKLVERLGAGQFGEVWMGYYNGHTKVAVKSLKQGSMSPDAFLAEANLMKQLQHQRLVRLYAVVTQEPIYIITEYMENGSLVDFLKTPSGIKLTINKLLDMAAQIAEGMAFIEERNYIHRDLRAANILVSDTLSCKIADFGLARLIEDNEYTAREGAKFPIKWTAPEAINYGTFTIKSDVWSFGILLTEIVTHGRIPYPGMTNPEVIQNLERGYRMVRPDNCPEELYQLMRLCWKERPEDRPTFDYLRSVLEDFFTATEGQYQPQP
Sequence of EGFR (P00533 25-1210): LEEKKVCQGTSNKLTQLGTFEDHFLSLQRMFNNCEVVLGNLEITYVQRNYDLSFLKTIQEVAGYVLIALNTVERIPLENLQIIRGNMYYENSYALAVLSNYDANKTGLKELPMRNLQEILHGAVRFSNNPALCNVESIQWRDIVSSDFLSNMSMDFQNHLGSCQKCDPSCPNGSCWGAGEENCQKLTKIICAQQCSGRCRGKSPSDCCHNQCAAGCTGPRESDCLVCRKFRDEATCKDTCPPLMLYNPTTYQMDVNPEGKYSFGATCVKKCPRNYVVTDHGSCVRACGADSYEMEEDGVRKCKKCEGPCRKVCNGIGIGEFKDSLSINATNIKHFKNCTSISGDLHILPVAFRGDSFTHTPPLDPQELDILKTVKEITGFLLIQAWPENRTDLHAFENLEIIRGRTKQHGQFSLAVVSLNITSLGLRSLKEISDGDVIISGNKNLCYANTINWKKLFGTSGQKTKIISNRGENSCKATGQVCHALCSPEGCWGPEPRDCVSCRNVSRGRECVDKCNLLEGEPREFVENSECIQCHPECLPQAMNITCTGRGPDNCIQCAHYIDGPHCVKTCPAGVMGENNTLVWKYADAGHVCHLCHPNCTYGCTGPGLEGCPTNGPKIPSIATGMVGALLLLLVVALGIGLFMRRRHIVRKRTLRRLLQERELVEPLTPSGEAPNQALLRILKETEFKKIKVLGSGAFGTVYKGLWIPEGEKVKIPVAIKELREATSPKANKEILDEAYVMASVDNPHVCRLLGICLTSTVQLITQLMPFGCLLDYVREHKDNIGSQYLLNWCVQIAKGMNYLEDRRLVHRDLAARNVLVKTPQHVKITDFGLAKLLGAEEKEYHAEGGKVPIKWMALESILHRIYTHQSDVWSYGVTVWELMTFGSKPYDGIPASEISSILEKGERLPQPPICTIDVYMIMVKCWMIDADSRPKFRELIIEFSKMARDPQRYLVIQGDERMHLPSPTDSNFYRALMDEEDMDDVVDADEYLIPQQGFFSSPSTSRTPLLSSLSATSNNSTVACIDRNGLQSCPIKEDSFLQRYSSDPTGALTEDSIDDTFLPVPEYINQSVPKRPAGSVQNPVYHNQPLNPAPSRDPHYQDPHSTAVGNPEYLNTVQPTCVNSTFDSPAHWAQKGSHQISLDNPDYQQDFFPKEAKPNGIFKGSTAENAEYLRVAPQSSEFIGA
T1 sequence (Q06187 whole entry): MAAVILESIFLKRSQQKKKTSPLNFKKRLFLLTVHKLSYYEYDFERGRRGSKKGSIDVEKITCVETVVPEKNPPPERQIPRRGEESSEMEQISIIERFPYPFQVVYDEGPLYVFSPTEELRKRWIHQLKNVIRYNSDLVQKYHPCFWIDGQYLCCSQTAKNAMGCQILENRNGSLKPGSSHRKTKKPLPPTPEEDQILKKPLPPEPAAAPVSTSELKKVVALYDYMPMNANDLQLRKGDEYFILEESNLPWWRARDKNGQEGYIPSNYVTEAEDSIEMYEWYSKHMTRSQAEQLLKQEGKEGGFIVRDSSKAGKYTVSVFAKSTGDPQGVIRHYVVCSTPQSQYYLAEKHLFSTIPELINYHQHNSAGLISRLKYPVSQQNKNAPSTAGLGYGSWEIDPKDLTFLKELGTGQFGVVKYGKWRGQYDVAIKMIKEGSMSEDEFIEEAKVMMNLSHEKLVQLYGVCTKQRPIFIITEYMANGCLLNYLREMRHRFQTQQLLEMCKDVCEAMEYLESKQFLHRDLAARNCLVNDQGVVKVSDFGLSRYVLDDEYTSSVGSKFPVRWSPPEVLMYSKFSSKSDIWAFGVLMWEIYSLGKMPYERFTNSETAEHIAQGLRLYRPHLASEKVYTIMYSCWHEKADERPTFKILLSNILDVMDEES

Row | Compound | pIC50 [1, 6] | pIC50 [2] | pIC50 [3] | pIC50 [4] | pIC50 [5] | pIC50 ([1]; read-out: BTK-WT IC50) | EGFR* IC50 relative to Btk IC50 value [2] | SRC* IC50 relative to Btk IC50 value [3] | LCK* IC50 relative to Btk IC50 value [4] | JAK3* IC50 relative to Btk IC50 value [5]
1 | C[C@@H]1[C@H](NC(=O)c2ccc(C3CC3)cc2)CCCN1c1nnc(C(N)=O)c(Nc2cnn(C)c2)n1 [Example A-201, 3-[(2R,3R)-3-(4-cyclopropylbenzamido)-2-methylpiperidin-1-yl]-5-[(1-methyl-1H-pyrazol-4-yl)amino]-1,2,4-triazine-6-carboxamide] | – | – | – | – | – | > 8.00 | 2962x | 47x | 49x | 1102x
2 | C[C@@H]1[C@H](NC(=O)c2ccc(C3CC3)cc2)CCCN1c1cnc(C(N)=O)c(Nc2cnn(C3CC3)c2)n1 [Example A-205, 3-[(1-cyclopropyl-1H-pyrazol-4-yl)amino]-5-[(2R,3R)-3-(4-cyclopropylbenzamido)-2-methylpiperidin-1-yl]pyrazine-2-carboxamide] | – | – | – | – | – | > 8.00 | 730x | 40x | 102x | 4032x
3 | C[C@@H]1[C@H](NC(=O)c2ccc(C(C)(C)C)cc2)CCCN1c1cnc(C(N)=O)c(Nc2cnn(C)c2)n1 [Example A-203, 5-((2R,3R)-3-(4-tert-butylbenzamido)-2-methylpiperidin-1-yl)-3-(1-methyl-1H-pyrazol-4-ylamino)pyrazine-2-carboxamide] | – | – | – | – | – | > 8.00 | 3304x | 98x | 684x | 7353x

Continued, values first:

Row | pIC50 [1, 6] | pIC50 [2] | pIC50 [3] | pIC50 [4] | pIC50 [5] | pIC50 ([1]; read-out: BTK-WT IC50) | EGFR* IC50 relative to Btk IC50 value [2] | SRC* IC50 relative to Btk IC50 value [3] | LCK* IC50 relative to Btk IC50 value [4] | JAK3* IC50 relative to Btk IC50 value [5] | Compound
4 | ≥ 8.00 | ≥ 8.00 | 7.00 to 8.00 | 5.00 to 6.00 | > 8.00 | – | – | – | – | – | C=CC(=O)N1CC[C@@H](N(C)c2nnc(C(N)=O)c(Nc3ccc(C(C)C)cc3)n2)C1 [Example C-41, (R)-3-((1-acryloylpyrrolidin-3-yl)(methyl)amino)-5-(4-isopropylphenylamino)-1,2,4-triazine-6-carboxamide]
5 | ≥ 8.00 | ≥ 8.00 | 7.00 to 8.00 | 7.00 to 8.00 | > 8.00 | – | – | – | – | – | C=CC(=O)N1CCC[C@@H](Nc2nnc(C(N)=O)c(Nc3ccc(C4CCN(C(=O)CC)CC4)cc3)n2)C1 [Example C-57, (R)-3-(1-acryloylpiperidin-3-ylamino)-5-(4-(1-propionylpiperidin-4-yl)phenylamino)-1,2,4-triazine-6-carboxamide]
